Reference: ChEMBL document CHEMBL3244067, “Synthesis and biological activity of carboxyl-terminus modified prostaglandin analogues” (J Med Chem, 1979)

Tests used:
[1] = Spasmogenic activity in nulliparous guinea pig uterine relative to PGE2; format: functional, Cavia porcellus, Uterus
[2] = system: Cavia porcellus; assay: Bronchodilator activity in Reed-Willet guinea pig assessed as inhibition of histamine-induced bronchoconstriction at 0.28 mM administered through nebulizer for 1 min relative to PGE2; format: functional
[3] = system: Canis familiaris; assay: Hypotensive activity in iv dosed PGE2-treated Mongrel dog assessed as change in blood pressure of greater than 10 mm by mercury manometer relative to PGE2; format: functional, Canis lupus familiaris
[4] = system: Rattus norvegicus; assay: Antisecretory activity in rat assessed as inhibition of pentagastrin-stimulated gastric acid secretion at 10 ug/kg, iv relative to PGE2; format: functional, Stomach
[5] = system: Mus musculus; assay: Induction of diarrheal activity in conscious mouse at 0.1 to 3 mg/kg, iv administered for 30 mins relative to PGE2; format: organism-based; parameters: dose 0.1-3 mg/kg, route intravenous; conditions: in vivo, 0.5 h
[6] = system: Rattus norvegicus; assay: Antisecretory activity in rat assessed as inhibition of pentagastrin-stimulated gastric acid secretion at 50 ug/kg, iv relative to PGE2; format: functional, Stomach
[7] = Dissociation constant, pKa of the compound; format: physicochemical

fold change (FC) [5]	pKa [7]	SMILES	fold change (FC) [1]	fold change (FC) [2]	fold change (FC) [3]	fold change (FC) [4]	fold change (FC) [6]
< 5		CCCCC[C@H](O)/C=C/[C@@H]1[C@@H](C/C=C\CCNC(=O)NC(C)=O)[C@@H](O)C[C@H]1O	<0.1		<0.5		
< 5		CCCCC[C@H](O)/C=C/[C@@H]1[C@@H](C/C=C\CCCc2nnn[nH]2)[C@@H](O)C[C@H]1O	0.8		2.5		
10		CCCCC[C@H](O)/C=C/[C@H]1[C@H](O)CC(=O)[C@@H]1C/C=C\CCCC(=O)NS(C)(=O)=O	7	47	1		12
27		CCCCC[C@H](O)/C=C/[C@H]1[C@H](O)CC(=O)[C@@H]1C/C=C\CCCC(=O)NC(=O)NCC	0.2	28	0.5		0
< 5		CCCCC[C@H](O)/C=C/[C@@H]1[C@@H](C/C=C\CCCC(=O)NC(=O)c2ccccc2)[C@@H](O)C[C@H]1O	0.9		0.5		
100		CCCCC[C@H](O)/C=C/[C@H]1[C@H](O)CC(=O)[C@@H]1C/C=C\CCCC(=O)NC(C)=O	65	63	25		160
6.5		CCCCC[C@H](O)/C=C/[C@@H]1[C@@H](C/C=C\CCCC(=O)O)[C@@H](O)C[C@H]1O [DINOPROST]	10		10		
< 5		CCCCC[C@H](O)/C=C/[C@@H]1[C@@H](C/C=C\CCCC(N)=O)[C@@H](O)C[C@H]1O	<0.1		2.5		
1350		CCCCC(C)(C)[C@H](O)/C=C/[C@H]1[C@H](O)CC(=O)[C@@H]1C/C=C\CCCC(=O)NS(C)(=O)=O	25	28	<0.5	220	
78		CCCCC[C@H](O)/C=C/[C@@H]1[C@@H](C/C=C\CCCC(=O)NC(C)=O)[C@@H](O)C[C@H]1O	30		<0.5		
< 10		CCCCC[C@H](O)/C=C/[C@@H]1[C@@H](C/C=C\CCCC(=O)NS(=O)(=O)c2ccccc2)[C@@H](O)C[C@H]1O	<0.1		<0.5		
10		CCCCC[C@H](O)/C=C/[C@H]1[C@H](O)CC(=O)[C@@H]1C/C=C\CCCC(N)=O	0.6	28	10		0
33		CCCCC[C@H](O)/C=C/[C@H]1[C@H](O)CC(=O)[C@@H]1C/C=C\CCCC(=O)NS(=O)(=O)c1ccccc1	3.1	28	<0.5		20
< 10		CCCCC[C@H](O)/C=C/[C@@H]1[C@@H](C/C=C\CCCC(=O)NC(=O)NCC)[C@@H](O)C[C@H]1O	<0.1		<0.5		
25		CCCCC[C@H](O)/C=C/[C@@H]1[C@@H](C/C=C\CCCC(=O)NS(C)(=O)=O)[C@@H](O)C[C@H]1O	<0.1		<0.5		

Continued, molecule first:

SMILES	fold change (FC) [5]	pKa [7]	fold change (FC) [1]	fold change (FC) [2]	fold change (FC) [3]	fold change (FC) [4]	fold change (FC) [6]
CCCCC(C)(C)[C@H](O)/C=C/[C@H]1[C@H](O)CC(=O)[C@@H]1C/C=C\CCCc1nnn[nH]1	2550		120	76	10	130	
CCCCC(C)(C)[C@H](O)/C=C/[C@H]1[C@H](O)CC(=O)[C@@H]1C/C=C\CCCC(=O)NC(C)=O	1250		100	24	2.5	330	
O=C(CCCC[P+](c1ccccc1)(c1ccccc1)c1ccccc1)NC(=O)c1ccccc1		12.9					
O=C(O)CCCC[P+](c1ccccc1)(c1ccccc1)c1ccccc1		5.19					
CCCCC(C)(C)[C@H](O)/C=C/[C@H]1[C@H](O)CC(=O)[C@@H]1C/C=C\CCCC(=O)O	5300		33	41	10	360	
CCCCC[C@H](O)/C=C/[C@H]1[C@H](O)CC(=O)[C@@H]1C/C=C\CCCC(=O)NC(=O)c1ccccc1	83		67	87	10		40
CCCCC[C@H](O)/C=C/[C@H]1[C@H](O)CC(=O)[C@@H]1C/C=C\CCNC(=O)NC(C)=O	< 5		<0.1	25	<0.5		0
O=C(CCCC[P+](c1ccccc1)(c1ccccc1)c1ccccc1)NS(=O)(=O)c1ccccc1		5.12					
CCCCC[C@H](O)/C=C/[C@H]1[C@H](O)CC(=O)[C@@H]1C/C=C\CCCc1nnn[nH]1	50		100	65	10		35
c1ccc([P+](CCCCc2nnn[nH]2)(c2ccccc2)c2ccccc2)cc1		4.93					
CC(=O)NC(=O)CCCC[P+](c1ccccc1)(c1ccccc1)c1ccccc1		12.9					
CS(=O)(=O)NC(=O)CCCC[P+](c1ccccc1)(c1ccccc1)c1ccccc1		5.25					
NC(=O)CCCC[P+](c1ccccc1)(c1ccccc1)c1ccccc1		15.1					
